Reference: patent US20240173320A1, “METHODS OF USING EHMT2 INHIBITORS IN IMMUNOTHERAPIES” (Epizyme, Inc., priority 2017, published 2024)
“Also recorded” adds a separate entry of the source.

Columns and labels:
H3K9me2 [1] = experiment: Methyl mark (H3K9me2) by flow cytometry under Th17 polarizing conditions; type: cell-based, human; details: naive CD4 T cells from healthy donor PBMCs, flow cytometry (Example 4, FIGS. 5, 6A-6B)
Protocol: (§1) Naive CD4 T cells were isolated from healthy donor PBMCs using magnetic bead separation and were incubated with cytokine cocktail to promote polarization to Th17 cells, as described in [0601]. Cells were simultaneously treated with various concentrations of G9a inhibitors, with compound replenishment occurring at day three or four. Polarization to Th17 cells was assessed by flow cytometry using IL-17A and IFNy. Methyl mark (H3K9me2) was also assessed by flow cytometry.

[2] = test system: naive CD4 T cells isolated from human PBMCs; experiment: Th17 cell polarization of naive CD4 T cells, flow cytometry for IL-17 and IFNγ; type: cell-based; details: for percentage of polarized Th17 cells: naive cells from human PBMCs, Th17 polarizing cytokines, 11 days, IL-17 and IFNγ by flow cytometry (Example 2, FIGS. 1B, 2)
Protocol: (§2) To evaluate the effects of Compounds on T regulatory (Treg) and Th17 cell polarization, naive CD4 T cells were isolated from human peripheral blood mononuclear cells (PBMCs) using magnetic bead separation and cultured with or without compound in the presence of Treg or Th17 polarizing cytokines. For Treg polarization, naive cells were cultured for five days with anti-CD3, anti-CD28, TL-2 and TGFβ. After five days, the cells were then evaluated for CD25 and Foxp3 expression by flow cytometry. For Th17 polarization, naive cells were cultured for 10-11 days with anti-CD3, anti-CD28, […], IL-6, IL-23, TGFβ, anti-IFNγ antibody and anti-IL-4 antibody. After 10-11 days cells were stimulated and then evaluated for IL-17 and IFNγ by flow cytometry.
To evaluate the effects of Compounds 205 and 571 on Th17 cell polarization, naive cells were isolated from human peripheral blood mononuclear cells (PBMCs), stimulated with coated CD3 antibody and soluble CD28 antibody, and cultured with or without compound in the presence of Th17 polarizing cytokines for 11 days as described in [0601]. Compound was replenished at either day three or day four. After 11 days of treatment, cells were stimulated with PMA, ionomycin, brefeldin A and monensin, and then evaluated for IL-17 and IFNγ by flow cytometry.
as §1

H3K9me2 [3] = experiment: Methyl mark (H3K9me2) by flow cytometry under Treg polarizing conditions; type: cell-based, human; details: naive CD4 T cells from healthy donor PBMCs, six days, flow cytometry (Example 3, FIGS. 3, 4A-4B)
Protocol: (§3) Naive CD4 T cells were isolated from healthy donor PBMCs using magnetic bead separation and were incubated for six days with cytokine cocktail to promote polarization to T regulatory cells, as described in [0601]. Cells were simultaneously treated with various concentrations of G9a inhibitors, with compound replenishment occurring at either day three or day four. Polarization to T regulatory cells was assessed by flow cytometry using Foxp3 and CD25. Methyl mark (H3K9me2) was also assessed by flow cytometry.

[4] = test system: naive CD4 T cells isolated from human PBMCs; experiment: T regulatory (Treg) cell polarization of naive CD4 T cells, flow cytometry for CD25 and Foxp3; type: cell-based; details: for Treg polarization: naive CD4 T cells from healthy donor PBMCs, six days, Foxp3 and CD25 by flow cytometry (Example 3, FIGS. 3, 4A-4B)
Protocol: as §2
To evaluate the effects of Compound 571 on Treg cell polarization, naive cells were isolated from human peripheral blood mononuclear cells (PBMCs), stimulated with coated CD3 antibody and soluble CD28 antibody, and cultured with or without compound in the presence of Treg polarizing cytokines for five days, as described in [0601]. Compound was replenished at either day three or day four.
as §3

Structure (SMILES) | H3K9me2 (methyl mark) under Th17 polarization (H3K9me2 [1]) | percentage of polarized Th17 cells [2] | H3K9me2 (methyl mark) under Treg polarization (H3K9me2 [3]) | Treg polarization [4] | polarized Treg cells ([4]; naive cells from human PBMCs, Treg polarizing cytokines, five days (Example 2, FIG. 1A)) | Th17 polarization ([2]; naive CD4 T cells from healthy donor PBMCs, IL-17A and IFNγ by flow cytometry (Example 4, FIG. 5))
CNc1cc(C)nc(Nc2ccc(OC)c(OCCCN3CCCC3)c2)n1 [Compound 205] | decreased | dose-dependent increase | decreased | increased | – | –
CCN1CC[C@@H](COc2cc(Nc3nc(C)cc(NC)n3)ccc2OC)C1 [Compound 571] | – | dose-dependent increase | – | – | anin polarized Treg cells | –
CNC1=Nc2cc(C#CCN3CCCCC3)c(OC)cc2C12CCC2 [Compound A75] | decreased | – | decreased | increased | – | –
CNCc1cnn(-c2cc(Nc3nc(C)cc(NC)n3)ccc2OC)c1 [Compound D6] | dose-dependent decrease; also recorded: decreased | – | dose-dependent decrease; also recorded: decreased | dose-dependent increase; also recorded: increased | – | dose-dependent increase
